Measured values published in patent US20080241258A1, “TREATMENT OF DISEASES WITH NANOPARTICLES HAVING A SIZE-DEPENDENT CYTOTOXICITY” (priority 2007, published 2008).

Tests used:
[1] = Stability (aggregation) of Au compounds in serum containing cell culture media, scored from microscopic pictures; type: physicochemical; set-up: key: Material aggregation was scored positive (+); negative (−); details: for Aggregation at 12 hours: sign after slash; for Aggregation at 5 minutes: sign in front of slash
Source text: Next applicant tested the stability of the materials in the serum containing cell culture media formulated for proper growth of the cell lines used in this study. Applicant reasoned that the medium composition might affect particle aggregation and that aggregation of materials would greatly influence the endocytic pathway and ultimately the cellular trajectories of materials precluding or favoring intracellular targets. Macroscopic and microscopic aspects of medium-material combinations in the absence of any cells were studied by applicant.
Materials were grouped according to their stability in specific media and over time.
Material stability was assayed in DMEM high glucose (H). DMEM low glucose (L) and RPMI 1640 including 10% fetal calf serum. Material aggregation was scored positive (+) or negative (−) from microscopic pictures taken after 5 minutes (sign in from of slash) and 12 hours incubation (sign after slash).

[2] = test system: HeLa cervix carcinoma epithelial cells; assay: MTT cytotoxicity assay, logarithmic growth phase; type: cell-based; details: FIG. 3A, at ˜10 μM ligand
Source text: Applicant quantified the toxicity of Au compounds in four cell lines determining the inhibitory concentrations that effected 50% growth inhibition (IC50) in MTT assays. Applicant reasoned that actively growing and dividing cells during logarithmic growth should be more vulnerable to toxic insults than cells in near or at the stationary phase of cell culture. Thus, applicant determined growth curves for all cell lines to estimate the logarithmic and stationary growth phases in relation to the number of cells seeded into each well of a 96-well cell culture plate. […] This graph serves as a reference to estimate whether cells were in the logarithmic or in the stationary phase of cell culture at the start of any given experiment. […] The bottom panel depicts the protocol of cytotoxicity testing starting during the logarithmic (left bottom panel) or the stationary growth phase (right bottom panel).
Having established growth characteristics for the reporter cell lines applicant treated the cells with Au compounds for up to 48 hours to observe the full effect of toxicity. […]
FIG. 3 A): HeLa cells were plated at 2000 cells/well and grown for 3 days into the logarithmic growth phase. […] Shown are the logarithmic curve fits of tabulated MTT readings. […] All concentrations relate to the amount of gold [Au] detected by AAS in the authentic samples after performing the cytotoxicity test. […]

[3] = test system: HeLa, SK-MeI-28, L929 and J774A1 cells; assay: MTT cytotoxicity assay in four cell lines
Source text: Applicant tested the cytotoxicity of these particles in four cell lines representing major functional cell types with barrier and phagocyte function.
Applicant added Au compounds to HeLa cervix carcinoma epithelial cells (HeLa), SK-MeI-28 melanoma cells (SK-MeI-28), L929 mouse fibroblasts (L929) and J774A.1 mouse monocytic/macrophage cells (J774A1) and first studied their response by light and electron microscopy.
Applicant quantified the toxicity of Au compounds in four cell lines determining the inhibitory concentrations that effected 50% growth inhibition (IC50) in MTT assays. […] Thus, applicant determined growth curves for all cell lines to estimate the logarithmic and stationary growth phases in relation to the number of cells seeded into each well of a 96-well cell culture plate.
Having established growth characteristics for the reporter cell lines applicant treated the cells with Au compounds for up to 48 hours to observe the full effect of toxicity. […] Applicant performed toxicity tests both during the logarithmic and the stationary phase of cell growth following the time course depicted in FIG. 2, lower panels.
FIG. 3 A): HeLa cells were plated at 2000 cells/well and grown for 3 days into the logarithmic growth phase. […] All concentrations relate to the amount of gold [Au] detected by AAS in the authentic samples after performing the cytotoxicity test. […]

[4] = DMEM high glucose (H) including 10% fetal calf serum
[5] = DMEM low glucose (L) including 10% fetal calf serum
[6] = RPMI 1640 including 10% fetal calf serum

Compound | Aggregation at 12 hours [1, 4] | Aggregation at 5 minutes [1, 4] | Aggregation at 12 hours [1, 5] | Aggregation at 5 minutes [1, 5] | Aggregation at 12 hours [1, 6] | Aggregation at 5 minutes [1, 6] | ligand toxicity [2] | non-toxic at up to x fold higher concentration (than 1.4 nm nanoclusters) ([3]; four cell lines) | IC50 ([3]; read-out: cytotoxicity: non-toxic at concentrations up to, all cells tested) [mM]
[Au+3].[Cl-].[Cl-].[Cl-].[Cl-].[H+] [HAuCl4] | −/− | −/− | −/− | −/− | −/− | −/− |  |  | 
[Cl][Au-]([Cl])([Cl])[Cl].[Na+] [NaAuCl4] | −/− | −/− | −/− | −/− | −/− | −/− |  |  | 
O=S(=O)([O-])c1cccc(P(c2ccccc2)c2ccccc2)c1.[Na+] [TPPMS, triphenylphosphine monosulfonate] | −/− | −/− | −/− | −/− | −/− | −/− | non-toxic |  | 
O=S(=O)([O-])c1cccc(P(c2cccc(S(=O)(=O)[O-])c2)c2cccc(S(=O)(=O)[O-])c2)c1.[Na+].[Na+].[Na+] [TPPTS, triphenylphosphine trisulfonate] | −/− | −/− | −/− | −/− | −/− | −/− | non-toxic |  | 
gold thiomalate [Tauredon] | +/+ | +/+ | +/+ | +/+ | + | − |  | up to 1000 fold | > 10
